Data published in patent publication EP1157985A1 (G.D. SEARLE & CO., priority 1996, dated 1997).
Structures can show the parent of a compound that is named as a salt. Where two headings read alike, the source gives them in different places. One block for each compound: values may come before it.

Assays:
[1] = target: T1, Human vitronectin receptor (αvβ3) (Homo sapiens, UniProt P05106+P06756); test: Vitronectin adhesion assay (solid phase receptor assay, competition with biotinylated vitronectin); assay type: binding
T1 construct: Human vitronectin receptor (αvβ3) was purified from human placenta; from tissue; host or cells: human placenta
Method: VITRONECTIN ADHESION ASSAY
Human vitronectin receptor (αvβ3) was purified from human placenta as previously described [Pytela et al., Methods in Enzymology, 144:475-489 (1987)]. Human vitronectin was purified from fresh frozen plasma as previously described [Yatohgo et al., Cell Structure and Function, 13:281-292 (1988)]. Biotinylated human vitronectin was prepared by coupling NHS-biotin from Pierce Chemical Company (Rockford, IL) to purified vitronectin as previously described [Charo et al., J. Biol. Chem., 266(3):1415-1421 (1991)]. Assay buffer, OPD substrate tablets, and RIA grade BSA were obtained from Sigma (St. Louis, MO). Anti-biotin antibody was obtained from Calbiochem (La Jolla, CA). Linbro microtiter plates were obtained from Flow Labs (McLean, VA). ADP reagent was obtained from Sigma (St. Louis, MO).
This assay was essentially the same as previously reported [Niiya et al., Blood, 70:475-483 (1987)]. The purified human vitronectin receptor (αvβ3) was diluted from stock solutions to 1.0 µg/mL in Tris-buffered saline containing 1.0 mM Ca^++, Mg^++, and Mn^++, pH 7.4 (TBS^+++). The diluted receptor was immediately transferred to Linbro microtiter plates at 100 µL/well (100 ng receptor/well). The plates were sealed and incubated overnight at 4°C to allow the receptor to bind to the wells. All remaining steps were at room temperature. The assay plates were emptied and 200 µL of 1% RIA grade BSA in TBS^+++ (TBS^+++/BSA) were added to block exposed plastic surfaces. Following a 2 hour incubation, the assay plates were washed with TBS^+++ using a 96 well plate washer. Logarithmic serial dilution of the test compound and controls were made starting at a stock concentration of 2 mM and using 2 nM biotinylated vitronectin in TBS^+++/BSA as the diluent. This premixing of labeled ligand with test (or control) ligand, and subsequent transfer of 50 µL aliquots to the assay plate was carried out with a CETUS Propette robot; the final concentration of the labeled ligand was 1 nM and the highest concentration of test compound was 1.0 x 10^-4 M. The competition occurred for two hours after which all wells were washed with a plate washer as before. Affinity purified horseradish peroxidase labeled goat anti-biotin antibody was diluted 1:3000 in TBS^+++/BSA and 125 µL were added to each well. After 30 minutes, the plates were washed and incubated with OPD/H2O2 substrate in 100 mM/L Citrate buffer, pH 5.0. The plate was read with a microtiter plate reader at a wavelength of 450 nm and when the maximum-binding control wells reached an absorbance of about 1.0, the final A450 were recorded for analysis. The data were analyzed using a macro written for use with the EXCEL™ spreadsheet program. The mean, standard deviation, and %CV were determined for duplicate concentrations. The mean A450 values were normalized to the mean of four maximum-binding controls (no competitor added)(B-MAX). The normalized values were subjected to a four parameter curve fit algorithm [Rodbard et al., Int.

[2] = target: T2, Human fibrinogen receptor (αIIbβ3) (Homo sapiens, UniProt P05106+P08514); test: Purified IIb/IIIa receptor assay (solid phase receptor assay, competition with biotinylated vitronectin); assay type: binding; settings: purified receptor from outdated platelets; 1 nM biotinylated vitronectin; highest concentration tested 1.0 x 10^-4 M
T2 construct: Human fibrinogen receptor (αIIbβ3) was purified from outdated platelets; from tissue; host or cells: outdated (human) platelets
Source text: PURIFIED IIb/IIIa RECEPTOR ASSAY
Human fibrinogen receptor (αIIbβ3) was purified from outdated platelets. (Pytela, R., Pierschbacher, M.D., Argraves, S., Suzuki, S., and Rouslahti, E. "Arginine-Glycine-Aspartic acid adhesion receptors", Methods in Enzymology 144(1987):475-489.) Human vitronectin was purified from fresh frozen plasma as described in Yatohgo, T., Izumi, M., Kashiwagi, H., and Hayashi, M., "Novel purification of vitronectin from human plasma by heparin affinity chromatography," Cell Structure and Function 13(1988):281-292. Biotinylated human vitronectin was prepared by coupling NHS-biotin from Pierce Chemical Company (Rockford, IL) to purified vitronectin as previously described. (Charo, I.F., Nannizzi, L., Phillips, D.R., Hsu, M.A., Scarborough, R.M., "Inhibition of fibrinogen binding to GP IIb/IIIa by a GP IIIa peptide", J. Biol. Chem. 266(3)(1991): 1415-1421.) Assay buffer, OPD substrate tablets, and RIA grade BSA were obtained from Sigma (St. Louis, MO). Anti-biotin antibody was obtained from Calbiochem (La Jolla, CA). Linbro microtiter plates were obtained from Flow Labs (McLean, VA). ADP reagent was obtained from Sigma (St. Louis, MO).
This assay is essentially the same reported in Niiya, K., Hodson, E., Bader, R., Byers-Ward, V. Koziol, J.A., Plow, E.F. and Ruggeri, Z.M., "Increased surface expression of the membrane glycoprotein IIb/IIIa complex induced by platelet activation: Relationships to the binding of fibrinogen and platelet aggregation", Blood 70(1987):475-483. The purified human fibrinogen receptor (αIIbβ3) was diluted from stock solutions to 1.0 µg/mL in Tris-buffered saline containing 1.0 mM Ca^++, Mg^++, and Mn^++, pH 7.4 (TBS^+++). The diluted receptor was immediately transferred to Linbro microtiter plates at 100 µL/well (100 ng receptor/well). The plates were sealed and incubated overnight at 4°C to allow the receptor to bind to the wells. All remaining steps were at room temperature. The assay plates were emptied and 200 µL of 1% RIA grade BSA in TBS^+++ (TBS^+++/BSA) were added to block exposed plastic surfaces. Following a 2 hour incubation, the assay plates were washed with TBS^+++ using a 96 well plate washer. Logarithmic serial dilution of the test compound and controls were made starting at a stock concentration of 2 mM and using 2 nM biotinylated vitronectin in TBS^+++/BSA as the diluent. This premixing of labeled ligand with test (or control) ligand, and subsequent transfer of 50 µL aliquots to the assay plate was carried out with a CETUS Propette robot; the final concentration of the labeled ligand was 1 nM and the highest concentration of test compound was 1.0 x 10^-4 M. The competition occurred for two hours after which all wells were washed with a plate washer as before. Affinity purified horseradish peroxidase labeled goat anti-biotin antibody was diluted 1:3000 in TBS^+++/BSA and 125 µL were added to each well. After 30 minutes, the plates were washed and incubated with […] substrate in 100 mM/L citrate buffer, pH 5.0. The plate was read with a microtiter plate reader at a wavelength of 450 nm and when the maximum-binding control wells reached an absorbance of about 1.0, the final A450 were recorded for analysis. The data were analyzed using a macro written for use with the EXCEL™ spreadsheet program. The mean, standard deviation, and %CV were determined for duplicate concentrations. The mean A450 values were normalized to the mean of four maximum-binding controls (no competitor added)(B-MAX). The normalized values were subjected to a four parameter curve fit algorithm, [Robard et al., Int. […]

[3] = purified receptor from human placenta; 1 nM biotinylated vitronectin; highest concentration tested 1.0 x 10^-4 M; read-out: AvB3 IC50

Structure (SMILES): CC(C)OC(=O)NC(Cc1ccc(NC(=O)c2cccc(Nc3n[nH]c(N)n3)c2)cc1)C(=O)O (racemic) [Example 103, (±) 4-[[[3-[3-amino-1H-1,2,4-triazol-5-yl)amino]-phenyl]carbonyl]amino]-N-[(1-methylethoxy) carbonyl]phenylalanine, trifluoroacetate salt]
IC50 [1, 3]: 269 nM
IC50 [2]: 3660 nM

Structure (SMILES): CC(C)OC(=O)NC(Cc1ccc(NC(=O)c2cccc(Nc3noc(N)n3)c2)cc1)C(=O)O (racemic) [Example 104, (±) 4-[[[3-[(5-amino-1,2,4-oxadiazol-3-yl)amino]-phenyl]carbonyl]amino]-N-[(1-methylethoxy)carbonyl]phenylalanine, trifluoroacetate salt]
IC50 [1, 3]: 506 nM
IC50 [2]: 1600 nM

Structure (SMILES): CCCCS(=O)(=O)N[C@@H](Cc1ccc(NC(=O)c2cc(NC3=NCCCCC3)cc(C(F)(F)F)c2)cc1)C(=O)O [Example 6, N-(butylsulfonyl)-4-[[[3-[(3,4,5,6-tetrahydro-2H-azepin-7-yl)-amino]-5-(trifluoromethyl)phenyl]carbonyl]-amino]phenylalanine, trifluoroacetate salt]
IC50 [1, 3]: 0.51 nM
IC50 [2]: 49.5 nM

Structure (SMILES): CCCCS(=O)(=O)N[C@@H](Cc1ccc(NC(=O)c2cccc(NC3=NCCCCC3)c2)cc1)C(=O)O [Example 10, N-(butylsulfonyl)-4-[[[3-[(3,4,5,6-tetrahydro-2H-azepin-7-yl)-amino]phenyl]carbonyl]amino]phenylalanine, trifluoroacetate salt]
IC50 [1, 3]: 1.17 nM
IC50 [2]: 26.9 nM

Structure (SMILES): CCOC(=O)CCc1ccc(CNC(=O)c2cccc(C#N)c2)cc1 [Example 12, ethyl 4-[[[[3-(cyano)phenyl]-carbonyl]amino]methyl]benzenepropanoate]
IC50 [1, 3]: > 100000 nM
IC50 [2]: 69200 nM

Structure (SMILES): N=C(N)c1cccc(C(=O)NCc2ccc(CCC(=O)O)cc2)c1 [Example 19, 4-[[[[3-(aminoiminomethyl)phenyl]carbonyl]amino]methyl]benzenepropanoic acid, trifluoroacetate salt]
IC50 [1, 3]: > 100000 nM
IC50 [2]: 1780 nM

Structure (SMILES): NC(=O)Nc1cccc(C(=O)Nc2ccc(CCC(=O)O)cc2)c1 [Example 24, 4-[[[3-[(aminocarbonyl)amino]phenyl]carbonyl]amino]benzenepropanoic acid]
IC50 [1, 3]: 1220 nM
IC50 [2]: 4530 nM

Structure (SMILES): O=C(O)CCc1ccc(NC(=O)c2cccc(NC(=O)NCc3ccccc3)c2)cc1 [Example 28, 4-[[[3-[[[(phenylmethyl)amino]carbonyl]amino]phenyl]carbonyl]amino]benzenepropanoic acid]
IC50 [1, 3]: 555 nM
IC50 [2]: 10100 nM

Structure (SMILES): N=C(N)Nc1cccc(C(=O)NCc2ccc(CCC(=O)O)cc2)c1 [Example 29, 4-[[[[3-[(aminoiminomethyl)amino]phenyl]carbonyl]amino]methyl]benzenepropanoic acid, trifluoroacetate salt]
IC50 [1, 3]: 4000 nM
IC50 [2]: 1280 nM

Structure (SMILES): CC(CC(=O)O)c1ccc(NC(=O)c2cccc(NC(=N)N)c2)cc1 (stereo not drawn) [Example 31, 4-[[[3-[(aminoiminomethyl)amino]phenyl]. carbonyl]amino]-β-methylbenzenepropanoic acid, trifluoroacetate salt]
IC50 [1, 3]: 114 nM
IC50 [2]: 66.5 nM

Structure (SMILES): N=C(N)Nc1cccc(C(=O)Nc2ccc(C(CC(=O)O)c3ccccc3)cc2)c1 (stereo not drawn) [Example 33, 4-[[[3-[(aminoiminomethyl)amino]phenyl]carbonyl]amino]-β-phenylbenzenepropanoic acid, trifluoroacetate salt]
IC50 [1, 3]: 73.6 nM
IC50 [2]: 7.37 nM

Structure (SMILES): CCOC(=O)C(Cc1ccc(NC(=O)c2cccc(NC(=N)N)c2)cc1)NC(C)=O (centres unmarked) [Example 34, N-acetyl-4-[[[3-[(aminoiminomethyl)amino]phenyl)carbonyl]amino]phenylalanine ethyl ester, trifluoroacetate salt]
IC50 [1, 3]: 45.2 nM
IC50 [2]: 2200 nM

Structure (SMILES): CCCCS(=O)(=O)NC(Cc1ccc(NC(=O)c2cccc(NC(=N)N)c2)cc1)C(=O)OCC (centres unmarked) [Example 41, trifluoroacetate salt]
IC50 ([1]; read-out: AvB3 IC50; purified receptor from human placenta; 1 nM biotinylated vitronectin; highest concentration tested 1.0 x 10^-4 M): 1080 nM
IC50 [2]: 5700 nM

Structure (SMILES): CCOC(=O)C(Cc1ccc(NC(=O)c2cccc(NC(=N)N)c2)cc1)NC(=O)OC(C)(C)C (centres unmarked) [Example 44, trifluoroacetate salt]
IC50 [1, 3]: 120 nM
IC50 [2]: 4310 nM

Structure (SMILES): N=C(N)Nc1cccc(C(=O)Nc2ccc(CC(NC(=O)c3ccccc3)C(=O)O)cc2)c1 (centres unmarked) [Example 47, trifluoroacetate salt]
IC50 [1, 3]: 5.89 nM
IC50 [2]: 51.1 nM

IC50 [1, 3]: 0.63 nM
IC50 [2]: 15.6 nM
Structure (SMILES): CS(=O)(=O)NC(Cc1ccc(NC(=O)c2cccc(NC(=N)N)c2)cc1)C(=O)O (centres unmarked) [Example 48, trifluoroacetate salt]

Structure (SMILES): CCOC(=O)NC(Cc1ccc(NC(=O)c2cccc(NC(=N)N)c2)cc1)C(=O)O (centres unmarked) [Example 49, trifluoroacetate salt]
IC50 [1, 3]: 1.1 nM
IC50 [2]: 31.4 nM

IC50 [1, 3]: 0.8 nM
IC50 [2]: 21.7 nM
Structure (SMILES): CC(C)OC(=O)NC(Cc1ccc(NC(=O)c2cccc(N=C(N)N)c2)cc1)C(=O)O (centres unmarked) [Example 50, trifluoroacetate salt]

IC50 [1, 3]: 0.63 nM
IC50 [2]: 0.71 nM
Structure (SMILES): N=C(N)Nc1cccc(C(=O)Nc2ccc(CC(NS(=O)(=O)c3ccccc3)C(=O)O)cc2)c1 (centres unmarked) [Example 51, trifluoroacetate salt]
